Reference: paper PMC12500448 (Frontiers in Pharmacology, 2025)
Like-named read-outs stand apart in the source and are kept apart here. Values belong to the molecule of their own block, whether it stands above or below them.

Key:
[1] = Pharmacokinetics of quetiapine and N-desalkylquetiapine in rats with or without nicardipine; assay type: in vivo, Sprague-Dawley rats; conditions: rat; for CL/F: read-out: CLz/F (converted)
Description: Due to the similarity between their hepatic enzyme system and humans, Sprague-Dawley male rats are widely used in pharmacokinetics ([Martignoni et al., 2006]; [Riccardi et al., 2018]). This pharmacokinetic study was conducted on eight healthy male Sprague-Dawley rats provided by the Animal Experiment Center of the First Affiliated Hospital of Wenzhou Medical University (Zhejiang, China). Animals were housed in an environment with a temperature of 20 °C–26 °C, relative humidity of 55% ± 15%, and a light-dark cycle of 12 h/day, in strict following the guidelines for the care and use of laboratory animals by the National Research Council. The research protocol was adhered to the ARRIVE guidelines and was approved by the Experimental Animal Ethics Committee of the First Affiliated Hospital of Wenzhou Medical University (WYYY-IACUC-AEC-2023–064). Before the formal experiment, in order to mitigate the influence of food on drug absorption, Sprague-Dawley rats were fasted for 12 h and then randomly divided into two groups. Nicardipine and quetiapine are dissolved using corn oil. […] Following centrifugation at 8,000 rpm for 10 min, 100 μL of plasma supernatant was precisely taken into a new clean and dry 1.5 mL EP tube, where 300 μL acetonitrile and 10 μL IS working solution (200 ng/mL) were added, and after vortexing and centrifugation, the supernatants were taken for injection and analysis.

[2] = parameters: method as in Chen et al., 2024; conditions: in vivo; ref Chen et al., 2024; cited from earlier work
[3] = tested on: rat liver microsomes (RLM); experiment: Screening of 10 drugs for inhibition of quetiapine metabolism (formation of N-desalkylquetiapine) in RLM; assay type: in vitro ADME; conditions: RLM 0.3 mg/mL, drug 100 μM, quetiapine at Km
Description: (§1) 200 μL enzymatic kinetic incubation system was adjusted according to the measurement purpose with the corresponding incubation conditions. […] The mixture without NADPH was pre-incubated at 37 °C in a water bath for 5 min, then 10 μL NADPH (20 mM) was added to initiate the reaction. Following a further 30 min incubation, the reaction was terminated by freezing at −80 °C. Prior to sample thawing, 400 μL acetonitrile was added to precipitate proteins, and 20 μL lurasidone (200 ng/mL) was added as IS. After complete dissolution of the samples, they were vortexed for 2 min and centrifuged for 10 min (13,000 rpm), then the supernatants were taken for UPLC-MS/MS detection and analysis.

[4] = tested on: human liver microsomes (HLM); conditions: 1-200 μM quetiapine
Description: as §1
(§2) The Michaelis-Menten curves, IC50 curves, Lineweaver–Burk plots, and the mean plasma concentration–time curves were generated using GraphPad Prism software (version 9.5; GraphPad Software Inc., San Diego, CA). The pharmacokinetic parameters were derived using the non-compartmental model analysis with Drug and Statistics software (version 3.0 software, Mathematical Pharmacology Professional Committee of China, Shanghai, China).

[5] = tested on: rat liver microsomes (RLM); conditions: 1-200 μM quetiapine
Description: as §1, §2

[6] = treatment of refractory depression; ref Reif et al., 2023; cited from earlier work
[7] = metabolite N-desalkylquetiapine in plasma, quetiapine 15 mg/kg + nicardipine 4 mg/kg by gavage
[8] = metabolite N-desalkylquetiapine in plasma, quetiapine 15 mg/kg by gavage alone
[9] = male, Sprague-Dawley, plasma, po, 15 mg/kg, quetiapine in plasma, quetiapine 15 mg/kg + nicardipine 4 mg/kg by gavage 30 min before
[10] = male, Sprague-Dawley, plasma, po, 15 mg/kg, quetiapine in plasma, quetiapine 15 mg/kg by gavage alone

- AUC0−∞ [1, 7]: 80.29 ± 27.62 ng·h/mL
- AUC(0-t) [1, 7]: 70.19 ± 22.75 ng·h/mL
- CLz/F [1, 7]: 3499.8 ± 1541 mL/min/kg
- Cmax [1, 7]: 14.98 ± 11.59 ng/mL
- Tmax [1, 7]: 0.69 ± 0.55 h
- t1/2 [1, 7]: 8.54 ± 5.49 h
- AUC0−∞ [1, 8]: 161.47 ± 62.64 ng·h/mL
- AUC(0-t) [1, 8]: 160.62 ± 63.16 ng·h/mL
- CLz/F [1, 8]: 1692 ± 501.3 mL/min/kg
- Cmax [1, 8]: 50.66 ± 32.77 ng/mL
- Tmax [1, 8]: 0.31 ± 0.13 h
- t1/2 [1, 8]: 3.19 ± 1.76 h
SMILES: c1ccc2c(c1)N=C(N1CCNCC1)c1ccccc1S2 [N-desalkylquetiapine]

SMILES: COC(=O)C1=C(C)NC(C)=C(C(=O)OCCN(C)Cc2ccccc2)C1c1cccc([N+](=O)[O-])c1 (stereo not shown) [nicardipine]
- increase of AUC0−∞ of almonertinib [2]: 0.87 fold
- increase of AUC(0-t) of almonertinib [2]: 0.95 fold

SMILES: O=c1c(O)c(-c2ccc(O)c(O)c2)oc2cc(O)cc(O)c12 [quercetin]
- inhibition rate against quetiapine metabolism [3]: 61.47%

- Km [4]: 50.8 µM
- Km [5]: 48.8 µM
- AUC(0-inf) [1, 9]: 108 ± 31.4 ng·h/mL
- half-life [1, 9]: 5.16 ± 2.82 h
- AUC(0-t) ([1]; male, Sprague-Dawley, plasma, po, 15 mg/kg, quetiapine in plasma, quetiapine 15 mg/kg + nicardipine 4 mg/kg by gavage 30 min before, read-out: AUC(0-t)): 106 ± 30.3 ng·h/mL
- CL/F [1, 9]: 2460 mL/min/kg
- Cmax ([1]; male, Sprague-Dawley, plasma, po, 15 mg/kg, quetiapine in plasma, quetiapine 15 mg/kg + nicardipine 4 mg/kg by gavage 30 min before, read-out: Cmax): 28.8 ± 10.7 ng/mL
- Tmax ([1]; male, Sprague-Dawley, plasma, po, 15 mg/kg, quetiapine in plasma, quetiapine 15 mg/kg + nicardipine 4 mg/kg by gavage 30 min before, read-out: Tmax): 0.88 ± 0.52 h
- AUC(0-inf) [1, 10]: 38.1 ± 6.91 ng·h/mL
- half-life [1, 10]: 5.12 ± 3.56 h
- AUC(0-t) ([1]; male, Sprague-Dawley, plasma, po, 15 mg/kg, quetiapine in plasma, quetiapine 15 mg/kg by gavage alone, read-out: AUC(0-t)): 36 ± 5.48 ng·h/mL
- CL/F [1, 10]: 6730 mL/min/kg
- Cmax ([1]; male, Sprague-Dawley, plasma, po, 15 mg/kg, quetiapine in plasma, quetiapine 15 mg/kg by gavage alone, read-out: Cmax): 12 ± 2.28 ng/mL
- Tmax ([1]; male, Sprague-Dawley, plasma, po, 15 mg/kg, quetiapine in plasma, quetiapine 15 mg/kg by gavage alone, read-out: Tmax): 0.94 ± 0.52 h
SMILES: OCCOCCN1CCN(C2=Nc3ccccc3Sc3ccccc32)CC1 [quetiapine]
- incidence of adverse reactions [6]: 78.0%
- incidence of serious adverse reactions [6]: 5.7%
